Measured values as given in ChEMBL document CHEMBL3244130, “A manual method for applying the Hansch approach to drug design” (J Med Chem, 1977).
One block for each compound: values may come before it.

Key:
[1] = Inhibition of alcohol dehydrogenase (unknown origin) assessed as dissociation constant for the complex of enzyme and DPNH; format: protein assay; settings: Homo sapiens
[2] = system: Rattus norvegicus; experiment: Antiinflammatory activity in rat pleurisy model assessed as 10X ratio of mean pleural exudate volumes at 1 mmol/kg, po relative to 1 mmol/kg aspirin; format: functional
[3] = system: Escherichia coli; experiment: Antibacterial activity against Escherichia coli; format: functional
[4] = Inhibition of carbonic anhydrase (unknown origin); settings: Homo sapiens
[5] = Uncoupling activity of oxidative phosphorylation in rat liver mitochondria; format: functional
[6] = organism: Oryctolagus cuniculus; experiment: Reversible inhibition of guanine deaminase in rabbit liver at pH 7.4
[7] = system: Plasma; experiment: Fibrinolytic activity in human plasma assessed as dissolution of standard clot measured with in 24 hrs; format: functional
[8] = organism: Rattus norvegicus; experiment: Hypoglycemic activity in rat assessed as change in blood glucose level after 4 hrs; format: functional; design: concentration or dose not given beside the values

log K [1]: -1.93
SMILES: NC(=O)c1ccc(Cl)cc1

SMILES: O=C(O)CCn1nnc(-c2ccc(Cl)cc2)n1
Activity_index [2]: 5.9

log(1/MIC) [3]: 5.4
SMILES: Cc1ccc(C(=O)NS(=O)(=O)c2ccc(N)cc2)cc1

log1/Ki [4]: 1.85
SMILES: NS(=O)(=O)c1ccc([N+](=O)[O-])c(C(F)(F)F)c1

SMILES: Cc1ccc(C2C(=O)c3ccccc3C2=O)cc1
log(1/C50) [5]: 4.1

SMILES: COc1ccc(-c2nnn(CCC(=O)O)n2)cc1
Activity_index [2]: 4.9

log(1/MIC) [3]: 4.05
SMILES: N#Cc1ccc(C(=O)NS(=O)(=O)c2ccc(N)cc2)cc1

log(1/C) [6]: 7.25
SMILES: Nc1nc(O)c2ncn(-c3ccc(OCCCc4ccccc4)cc3)c2n1

SMILES: O=C(O)[C@H]1C[C@@H]1C#Cc1ccccc1
log(1/C) [7]: 1.7

SMILES: COc1ccc(C#C[C@H]2C[C@@H]2C(=O)O)cc1
log(1/C) [7]: 1.7

SMILES: COc1ccc(C(=O)C=P(c2ccccc2)(c2ccccc2)c2ccccc2)cc1
Activity [8]: -4%

log1/Ki [4]: 0.42
SMILES: Cc1ccc(S(N)(=O)=O)cc1

SMILES: CC(C)c1ccc(C2C(=O)c3ccccc3C2=O)cc1
log(1/C50) [5]: 4.87

log K [1]: -2.72
SMILES: NC(=O)c1ccccc1

log(1/C) [6]: 7.01
SMILES: CCOc1ccc(-n2cnc3c(O)nc(N)nc32)cc1

SMILES: O=C1c2ccccc2C(=O)C1c1ccccc1
log(1/C50) [5]: 3.74

log K [1]: -2.2
SMILES: COc1ccc(C(N)=O)cc1

log1/Ki [4]: 0.72
SMILES: NS(=O)(=O)c1ccc(Cl)cc1

SMILES: Cc1ccc(-c2nnn(CCC(=O)O)n2)cc1
Activity_index [2]: 3.1

SMILES: COc1cccc(C(=O)C=P(c2ccccc2)(c2ccccc2)c2ccccc2)c1
Activity [8]: -42%

SMILES: O=C(C=P(c1ccccc1)(c1ccccc1)c1ccccc1)c1ccc(Cl)c(Cl)c1
Activity [8]: 2%

log1/Ki [4]: 1.4
SMILES: NS(=O)(=O)c1ccc(Cl)c(Cl)c1

SMILES: O=C(O)CCn1nnc(-c2ccc(Cl)c(Cl)c2)n1
Activity_index [2]: 6.2

log(1/MIC) [3]: 5.4
SMILES: Cc1cccc(C(=O)NS(=O)(=O)c2ccc(N)cc2)c1

log(1/MIC) [3]: 5.25
SMILES: COc1ccc(C(=O)NS(=O)(=O)c2ccc(N)cc2)cc1C

SMILES: Cc1ccc(C#C[C@H]2C[C@@H]2C(=O)O)cc1
log(1/C) [7]: 1.82

SMILES: COc1ccc(C2C(=O)c3ccccc3C2=O)cc1
log(1/C50) [5]: 3.75

log(1/MIC) [3]: 4.5
SMILES: Nc1ccc(S(=O)(=O)NC(=O)c2ccc([N+](=O)[O-])cc2)cc1

SMILES: O=C(C=P(c1ccccc1)(c1ccccc1)c1ccccc1)c1cccc(C(F)(F)F)c1
Activity [8]: -22%

SMILES: CC(C)(C)c1ccc(C2C(=O)c3ccccc3C2=O)cc1
log(1/C50) [5]: 5.03

SMILES: O=C(O)CCn1nnc(-c2ccccc2)n1
Activity_index [2]: 8.2

log(1/MIC) [3]: 5.4
SMILES: COc1ccc(C(=O)NS(=O)(=O)c2ccc(N)cc2)cc1

SMILES: O=C1c2ccccc2C(=O)C1c1ccc(Cl)cc1
log(1/C50) [5]: 4.2

SMILES: O=C(O)CCn1nnc(-c2cccc(Cl)c2)n1
Activity_index [2]: 11.2

log(1/MIC) [3]: 5.25
SMILES: Nc1ccc(S(=O)(=O)NC(=O)c2ccccc2)cc1 [SULFABENZAMIDE]

SMILES: O=C(O)CCn1nnc(-c2cccc(Br)c2)n1
Activity_index [2]: 11.2

SMILES: Nc1cccc(-c2nnn(CCC(=O)O)n2)c1
Activity_index [2]: 0.3

log(1/MIC) [3]: 5.1
SMILES: Nc1ccc(S(=O)(=O)NC(=O)c2ccc(Cl)cc2)cc1

SMILES: O=C(O)CCn1nnc(-c2cccc(C(F)(F)F)c2)n1
Activity_index [2]: 5.7

SMILES: Cc1cccc(-c2nnn(CCC(=O)O)n2)c1
Activity_index [2]: 7.9

SMILES: Cc1cccc(C(=O)C=P(c2ccccc2)(c2ccccc2)c2ccccc2)c1
Activity [8]: -30%

log(1/MIC) [3]: 5.18
SMILES: CCCc1ccc(C(=O)NS(=O)(=O)c2ccc(N)cc2)cc1

log1/Ki [4]: 0.35
SMILES: COc1ccc(S(N)(=O)=O)cc1

log(1/MIC) [3]: 5.62
SMILES: CCc1ccc(C(=O)NS(=O)(=O)c2ccc(N)cc2)cc1

SMILES: O=C(O)CCn1nnc(-c2cc(Cl)cc(Cl)c2)n1
Activity_index [2]: 11.2

SMILES: O=C(C=P(c1ccccc1)(c1ccccc1)c1ccccc1)c1ccccc1
Activity [8]: -24%

log K [1]: -1.78
SMILES: Cc1ccc(C(N)=O)cc1

log(1/MIC) [3]: 4.65
SMILES: Nc1ccc(S(=O)(=O)NC(=O)c2cccc(C(F)(F)F)c2)cc1

SMILES: O=C(C=P(c1ccccc1)(c1ccccc1)c1ccccc1)c1cccc(Cl)c1
Activity [8]: -42%

SMILES: Cc1ccc(C(=O)C=P(c2ccccc2)(c2ccccc2)c2ccccc2)cc1
Activity [8]: -2%

SMILES: O=C(C=P(c1ccccc1)(c1ccccc1)c1ccccc1)c1ccc(Cl)cc1
Activity [8]: -21%

log(1/MIC) [3]: 5.4
SMILES: CC(C)c1ccc(C(=O)NS(=O)(=O)c2ccc(N)cc2)cc1

log1/Ki [4]: 0.22
SMILES: NS(=O)(=O)c1ccccc1

SMILES: O=C(O)[C@H]1C[C@@H]1C#Cc1ccc(Cl)cc1
log(1/C) [7]: 1.92

log K [1]: -1.7
SMILES: CC(C)c1ccc(C(N)=O)cc1
